# Assay results: PubChem BioAssay (NCI)
# Values joined by “and” are separate entries in the source; they are usually repeats but may differ in a detail not shown here. Equal values may be shown once.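 Five concentrations, 48 hours, 96-well plates. The concentration for 50% growth inhibition is given as GI50. TGI: total growth inhibition.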
# What was measured:
# Assay in all cases: NCI anticancer screen, dose series, 48 h
# [1] = system: HOP-92 NSCLC
# [2] = system: K-562 leukemia
# [3] = system: NCI/ADR-RES ovarian
# [4] = system: UO-31 renal
# [5] = system: UACC-62 melanoma
# [6] = system: ACHN renal
# [7] = system: CAKI-1 renal
# [8] = system: A498 renal
# [9] = system: SK-MEL-5 melanoma
# [10] = system: NCI-H23 lung
# [11] = system: MOLT-4 leukemia
# [12] = system: OVCAR-5 ovarian
# [13] = system: MCF7 breast
# [14] = system: MDA-MB-231 breast
# [15] = system: SNB-75 CNS
# [16] = system: NCI-H460 lung
# [17] = system: SN12C renal
# [18] = system: A549 NSCLC
# [19] = system: SNB-19 CNS
# [20] = system: COLO 205 colon
# [21] = system: LOX IMVI melanoma
# [22] = system: CCRF-CEM leukemia
# [23] = system: OVCAR-4 ovarian
# [24] = system: TK-10 renal
# [25] = system: SF-295 CNS
# [26] = system: RPMI-8226 leukemia
# [27] = system: HCT-15 colon
# [28] = system: M14 melanoma
# [29] = system: NCI-H522 lung
# [30] = system: SK-OV-3 ovarian
# [31] = system: SR leukemia
# [32] = system: RXF 393 renal
# [33] = system: HS 578T breast
# [34] = system: SF-268 CNS
# [35] = system: U251 CNS
# [36] = system: PC-3 prostate
# [37] = system: 786-0 renal
# [38] = system: BT-549 breast
# [39] = system: NCI-H226 lung
# [40] = system: SK-MEL-2 melanoma
# [41] = system: HCT-116 colon
# [42] = system: KM12 colon
# [43] = system: HOP-62 NSCLC
# [44] = system: EKVX NSCLC
# [45] = system: HCC-2998 colon
# [46] = system: HL-60(TB) leukemia
# [47] = system: IGROV1 ovarian
# [48] = system: HT29 colon
# [49] = system: SF-539 CNS
# [50] = system: SW-620 colon
# [51] = system: MDA-MB-435
# [52] = system: MALME-3M melanoma
# [53] = system: T-47D breast
# [54] = system: SK-MEL-28 melanoma
# [55] = system: UACC-257 melanoma
# [56] = system: DU-145 prostate
# [57] = system: OVCAR-3 ovarian
# [58] = system: OVCAR-8 ovarian
compound,measurement,setting,value
O=C(Nc1ccc(Br)cc1)c1cc(Br)ccc1O,GI50,[1],0.218 µM and 0.332 µM
same,TGI,[1],0.698 µM and 2.88 µM
same,GI50,[2],0.437 µM and 0.419 µM
same,GI50,[3],0.523 µM and 1.16 µM
same,TGI,[3],8.28 µM
same,GI50,[4],0.247 µM and 0.767 µM
same,TGI,[4],2.16 µM and 9.78 µM
same,GI50,[5],0.235 µM and 0.371 µM
same,TGI,[5],1.07 µM and 2.25 µM
same,GI50,[6],0.61 µM and 1.47 µM
same,TGI,[6],> 64 µM
same,GI50,[7],0.333 µM and 1.21 µM
same,TGI,[7],2.49 µM and 5.62 µM
same,GI50,[8],0.219 µM and 0.358 µM
same,TGI,[8],0.841 µM and 1.82 µM
same,GI50,[9],0.304 µM and 0.416 µM
same,TGI,[9],1.16 µM and 1.56 µM
same,GI50,[10],0.345 µM and 0.467 µM
same,TGI,[10],2.06 µM and 4.34 µM
same,GI50,[11],0.683 µM and 0.799 µM
same,TGI,[11],3.2 µM and 3.89 µM
same,GI50,[12],1.75 µM and 4.79 µM
same,TGI,[12],> 92.4 µM
same,GI50,[13],0.412 µM and 1.29 µM
same,TGI,[13],3.37 µM and 7.8 µM
same,GI50,[14],0.622 µM and 1.43 µM
same,TGI,[14],3.22 µM and 7.06 µM
same,GI50,[15],0.348 µM and 1.34 µM
same,TGI,[15],3.07 µM and 14.3 µM
same,GI50,[16],0.389 µM and 0.617 µM
same,TGI,[16],4.96 µM and 10.7 µM
same,GI50,[17],0.252 µM and 1.42 µM
same,TGI,[17],5.14 µM and 8.36 µM
same,GI50,[18],1.09 µM and 2.5 µM
same,TGI,[18],> 100 µM
same,GI50,[19],0.339 µM and 1 µM
same,TGI,[19],> 93.1 µM
same,GI50,[20],1.66 µM and 1.71 µM
same,TGI,[20],3.1 µM and 3.25 µM
same,GI50,[21],0.549 µM and 1.09 µM
same,TGI,[21],4.46 µM and 4.42 µM
same,GI50,[22],0.862 µM and 0.752 µM
same,GI50,[23],0.452 µM and 1.17 µM
same,TGI,[23],> 100 µM
same,GI50,[24],0.379 µM and 1.56 µM
same,TGI,[24],> 22.1 µM
same,GI50,[25],0.712 µM and 1.39 µM
same,TGI,[25],2.3 µM and 4.08 µM
same,GI50,[26],0.483 µM and 0.244 µM
same,TGI,[26],0.758 µM
same,GI50,[27],0.483 µM and 0.779 µM
same,TGI,[27],4.01 µM and 7.35 µM
same,GI50,[28],1 µM and 2.13 µM
same,TGI,[28],7.07 µM and 18.2 µM
same,GI50,[29],0.263 µM and 0.854 µM
same,TGI,[29],4.81 µM and 22.2 µM
same,GI50,[30],0.747 µM and 1.8 µM
same,GI50,[31],0.291 µM and 0.554 µM
same,TGI,[31],3.23 µM
same,GI50,[32],0.612 µM
same,TGI,[32],3.89 µM
same,GI50,[33],0.302 µM and 0.455 µM
same,TGI,[33],2.94 µM
same,GI50,[34],0.489 µM and 2.05 µM
same,TGI,[34],26.6 µM and 13.4 µM
same,GI50,[35],0.417 µM and 0.682 µM
same,TGI,[35],> 100 µM
same,GI50,[36],0.973 µM and 2.69 µM
same,TGI,[36],12.7 µM and > 29 µM
same,GI50,[37],0.504 µM and 1.4 µM
same,TGI,[37],2.84 µM and 4.74 µM
same,GI50,[38],0.327 µM and 0.724 µM
same,TGI,[38],2.12 µM and 3.03 µM
same,GI50,[39],0.747 µM and 0.729 µM
same,TGI,[39],4.52 µM and 4.03 µM
same,GI50,[40],0.278 µM and 1.74 µM
same,TGI,[40],1.25 µM and 5 µM
same,GI50,[41],0.354 µM and 1.45 µM
same,TGI,[41],1.56 µM and 3.56 µM
same,GI50,[42],1.67 µM and 2 µM
same,TGI,[42],4.99 µM and 5.31 µM
same,GI50,[43],0.791 µM and 1.73 µM
same,TGI,[43],8.75 µM and 5.31 µM
same,GI50,[44],0.788 µM and 0.75 µM
same,TGI,[44],36.6 µM and > 20.1 µM
same,GI50,[45],2.36 µM and 3.46 µM
same,TGI,[45],7.67 µM and 35.7 µM
same,GI50,[46],0.408 µM and 1.12 µM
same,TGI,[46],4.54 µM and 3.8 µM
same,GI50,[47],0.346 µM and 0.749 µM
same,TGI,[47],22.8 µM and 17 µM
same,GI50,[48],3.11 µM and 3.38 µM
same,TGI,[48],16 µM and 39 µM
same,GI50,[49],0.647 µM and 0.7 µM
same,TGI,[49],13 µM and 10.1 µM
same,GI50,[50],0.986 µM and 2 µM
same,TGI,[50],8.61 µM and 6.87 µM
same,GI50,[51],0.43 µM and 1.38 µM
same,TGI,[51],3.23 µM and 5.66 µM
same,GI50,[52],0.284 µM and 0.48 µM
same,TGI,[52],1.57 µM and 4.2 µM
same,GI50,[53],0.337 µM and 0.604 µM
same,TGI,[53],5.02 µM and 7.42 µM
same,GI50,[54],0.314 µM and 1.44 µM
same,TGI,[54],2.17 µM and 5.14 µM
same,GI50,[55],0.455 µM and 2.73 µM
same,TGI,[55],3.58 µM and 8.43 µM
same,GI50,[56],0.539 µM and 2.03 µM
same,TGI,[56],> 47 µM and 14.1 µM
same,GI50,[57],0.314 µM and 0.535 µM
same,TGI,[57],7.81 µM and 7.14 µM
same,GI50,[58],0.554 µM and 2.65 µM
same,TGI,[58],> 82.8 µM
